The record followed here is patent US20230219957A1, “SMALL MOLECULE CB002-ANALOGES RESTORE THE P53 PATHWAY AND TARGET S-PHASE CHECKPOINT” (Brown University, priority 2020, published 2023).

The subject of series [1] is HCT116 p53 R175H. As to the kind of experiment: CellTiter-Glo (Cell-Titer glow) cytotoxicity assay. The class given is cell-based, human. The following applies: forty-eight hours. How it is done: CellTiter-Glo® luminescent cell viability assay. Cells were seeded in 96-well plates at a density of 5×10^3 cells per well. 20 μL of CellTiter-Glo® Reagent was added directly to the wells, following the manufacturers protocol. The bioluminescence signal was determined using an IVIS imaging system, optionally at a period of 48-72 hours after treatment.
Overexpression of p53 R175H mutant by lentivirus infection. HCT116 p53^−/− cells, obtained from the Vogelstein Laboratory, Johns Hopkins University, were infected with a lentivirus vector containing the p53 R175H mutant (pLenti6/V5-p53_R175H, Addgene). Cells were selected with blasticidin (8 μg/mL)-containing media cultured for ten days. Blasticidin-resistant clones (pooled clones) were screened for expression of the p53 R175H mutation by Western blot analysis with p53 DO-1 antibody.
CB002-analog #4 is a potent anti-tumor agent in vitro and in vivo. The inventors focused on lead CB002-analog #4 and investigated its therapeutic index in vitro and in vivo. The inventors treated an isogenic HCT116 cell line panel with 100 μM CB002 or 25 μM CB002-analog #4 and established IC50 values by the Cell-Titer glow cytotoxicity assay. Across this panel, CB002-analog #4 has a 20-fold to 30-fold range in IC50 values, independently of the HCT116 p53-status.

For series [2], the system named is SW480 cells. Briefly: Propidium iodide Sub-G1 apoptosis analysis. The class given is cell-based, human. To be noted: compared to vehicle control, forty-eight hours. How it is done:
(§1) Apoptosis assay. Apoptotic cells were quantified by sub-G1 analysis. Cells were seeded at a density of 2.5×10^5to 5×10^5in a 6-well plate and treated forty-eight to seventy-two hours. After treatment, adherent cells were trypsinized and collected along with floating cells, washed with phosphate-buffered saline, and fixed in 70% ethanol. Cells were then incubated in a phosphate-citric acid buffer (0.2M Na2HPO4+0.1M citric acid, pH 7.8) at room temperature for five minutes, spun down, and resuspended for staining with 50 μg/mL propidium iodide (PI) in the presence of 250 μg/mL pancreatic ribonuclease (RNase A). Sub-G1 analyses were performed using an Epics Elite Epics flow cytometer (Coulter-Beckman).
Propidium iodide and BrdU flow cytometry assay. Cells were seeded at a density of 5×10^5 in a 6-well plate and treated for forty-eight to seventy-two hours. After treatment, floating cells were collected, and adherent cells were trypsinized, pelleted, washed with phosphate-buffered saline, and fixed in 70% ethanol overnight. For propidium iodide (PI) based Sub-G1 apoptosis analysis, cells were spun down after fixation and resuspended in phosphate-citric acid buffer (0.2M Na2HPO4+0.1M Citric Acid, pH 7.8) at room temperature for five minutes. […] Samples were analyzed on an Epics Elite Epics flow cytometer (Coulter-Beckman).

For series [3], the system named is normal human WI38 lung fibroblast cells. Briefly: Propidium iodide Sub-G1 analysis in normal cells. The format is cell-based. To be noted: forty-eight hours. How it is done:
as §1, with “(Coulter-Beckman). Propidium iodide and BrdU flow cytometry assay. Cells were seeded at a density of 5×10^5 in a 6-well plate and treated for forty-eight to seventy-two hours. After treatment, floating cells were collected, and adherent cells were trypsinized, pelleted, washed with phosphate-buffered saline, and fixed in 70% ethanol overnight. For propidium iodide (PI) based Sub-G1 apoptosis analysis, cells were spun down after fixation and resuspended in phosphate-citric acid buffer (0.2M Na2HPO4+0.1M Citric Acid, pH 7.8) at room temperature for five minutes. […] Samples were analyzed on an Epics Elite Epics flow cytometer (Coulter-Beckman).” for “(Coulter-Beckman).”

In series [4] the test system is SW480 cells. As to the kind of experiment: Microarray transcriptomic analysis with ingenuity pathway analysis. The format is cell-based, human. The following applies: twelve hours treatment. As for the experimental part:
Microarray analysis. SW480 cells were seeded at a density of 1×10^6 in 10 cm dishes. After being adhered, the cells were treated with dimethyl sulfoxide vehicle control or CB002-analog #4. Floating cells were collected, and adherent cells were trypsinized at twelve hours of treatment. The cells were pelleted. According to manufacturer instructions, RNA was isolated from the cells using a Quick-RNA™ MiniPrep (#R1055, Zymo Research Irvine, Calif., USA). RNA quality was tested using an Agilent Bioanalyzer RNA kit. When the RNA quality was enough, RNA was amplified and labeled using the low RNA input linear amplification kit commercially available from Agilent Technologies, Santa Clara, Calif., USA. Labeled cDNA was hybridized onto Affymetrix Human Gene 2.0-ST array. Significant changes in gene expression were determined at 1.5-fold either up or down in dimethyl sulfoxide vehicle control versus CB002-analog #4.

pIC50: −log10 of the molar value.

Broadly, the pIC50 is −log10 of the IC50, conventionally taken in molar units. The compound `Cn1c(=O)c2[nH]c(Nc3cccc(C(F)(F)F)c3)nc2n(C)c1=O` [CB002-analog #4] had a negative-log IC50 (pIC50) in series [1] of 5.35. Further, the Sub-G1 content result in series [2] was “significant increase of Sub-G1 content”. The “sub-G1 in normal cells” value in series [3] is given as “does not increase sub-G1”. Moreover, in series [4], the “p53 target genes Noxa, Puma, and DR5 expression” value is listed as “upregulated”; the “p53 upstream regulator activation z-score (IPA)” value was 3.3.
Compound `Cn1c(=O)c2[nH]c(Nc3ccccc3)nc2n(C)c1=O` [CB002] had a negative logarithm of the IC50 (pIC50) in series [1] (Homo sapiens, HCT-116) of 3.40.
